This note sets out measurements from patent publication US9150555B2, “Amide derivative and use thereof” (Mitsubishi Tanabe Pharma Corporation, priority 2010, dated 2015).

The structures appear in SMILES notation. Where a name gives a salt, the structure may show the parent alone.

For data set [1], the system named is IL-17 production of mouse spleen cells stimulated by rm-IL-23. Kind of data set: Production of IL-17 induced when mouse spleen cells were stimulated by recombinant mouse interleukin-23 (rm-IL-23). It counts as cell-based. Conditions: Mus musculus, 72 h, inhibition of IL-17 production, DBA/1J mouse spleen cells, rm-IL-23 1 nmol/L, ELISA. The procedure:
Effect on Production of IL-17 Induced when Mouse Spleen Cells were Stimulated by Recombinant Mouse Interleukin-23 (rm-IL-23)
An RPMI1640 (Sigma-Aldrich) was used as a medium, to which penicillin G potassium (50 units/mL; Gibco), streptomycin (50 μg/mL; Gibco) and 2-mercaptoethanol (50 μmol/l; Sigma-Aldrich) were added, and then 10% of fetal calf serum (FCS; Cell Culture Technology) inactivated at 56° C. for 30 minutes was added and used in the Test. The test compound was dissolved in dimethylsulfoxide and diluted with 10% FCS-containing RPMI1640 medium to a desired concentration and used in the test. The spleens were aseptically taken out from 6-7 week-old male DBA/1J mice (Charles River Japan, Inc.) and a single cell suspension of spleen cells was prepared and hemolyzed by hypotonic treatment with a mixture of 0.83% aqueous solution of ammonium chloride and Tris-HCl buffer of pH 7.65 (9:1). A cell suspension prepared by 10% FCS-containing RPMI1640 medium was added to flat-bottomed 96 well microtestplate at 2×10^5 cells/well. Test compounds and rm-IL-23 (R&D systems) were diluted with a medium to 1 to 1,000 nmol/L, and 1 nmol/L of the final concentration respectively, which were added and cultured at 37° C., 5% carbon dioxide and 95% air for 72 hours. After completion of the culture, culture supernatant was sampled and an amount of IL-17 production was determined by ELISA method. After sampling the supernatant, WST-8 (Seikagaku Corporation) was added at 10 μl/well and cultured at 37° C., 5% carbon dioxide and 95% air for 4 hours. Then, absorbance (O.D.: Optical Density) at 450 nm was measured by a microplate reader and the value was adopted as an index of cell survivability. An inhibition rate (%) was calculated according to the following formula on the basis of an average of an amount of IL-17 production and a O.D. values of the well containing a test compound of each concentration.
Based on the dose-response curve obtained by plotting the inhibition rate in the longitudinal axis and concentration in the horizontal axis, the concentration of the compound which inhibits the level to 50% of the value of the control group (IC50; nmol/L) was determined by linear regression analysis. The results was shown in the next Table 1
A general note: In an ELISA, binding on a coated surface is turned into a signal by an enzyme label.

For data set [2], the target named is hERG (Homo sapiens, UniProt Q12809). Put plainly: Effects on hERG current (whole-cell clamping). Conditions: human, HEK 293 cells that express hERG, pH 7.4, hERG inhibition rate (%) (1 μM), 1 μM; tail peak current; hERG-expressed HEK 293 cells.
Procedure: Dimethylsulfoxide was used as a vehicle and hERG-expressed HEK 293 cells (Cytomyx) were used as test cells. Test cells were once cultured and subdivided and were stored under frozen condition in liquid nitrogen. In the study, thawed and subcultured cells having less than 30 of the passage number were used. Test cells were cultured in a carbon dioxide incubator BNP-110M (Tabai Espec Corp.) at 37±1° C., and 5.0±0.5% of carbon dioxide concentration. The component of culture medium was MEM (Minimum Essential Medium) supplemented with 10 vol % fetal bovine serum (non-activated), 1 mmol/L sodium pyruvate, 0.1 mmol/L non-essential amino acid, 100 U/mL penicillin with 100 μg/mL streptomycin. To select gene-expressing cells, 400 μg/mL G418 Sulphate (Invitrogen) was added to the culture medium. In the dishes for the measurement, the medium which not contain G418 Sulphate (Invitrogen) was used.
As to seeding of cells for measurement, subcultured cells which became confluent were treated with 0.25% trypsin-solution containing 1 mmol/L EDTA (Invitrogen) to remove from the plate, and seeded on sterilized collagen-coated cover glass (Iwaki, AGC Techno Glass Co., LTD). The medium was exchanged appropriately, including the day of measurement.
A perfusion method was applied to the experiment. Test cells were perfused (perfusion speed: approximately 4 mL/min) with an external solution containing specified concentrations of test compounds (component of external solution: 137 mmol/L of sodium chloride, 4 mmol/L of potassium chloride, 10 mmol/L of HEPES, 1.8 mmol/L of calcium chloride, 1 mmol/L of magnesium chloride and 10 mmol/L of glucose; adjusted to pH 7.4±0.1 with sodium hydroxide aqueous solution). […] When effects were observed, the perfusion was continued until the maximum response was observed. […] The data were obtained from one experiment or more and the cells which were incubated in a carbon dioxide incubator after seeding and attached to cover slips were used for the measurement.
A whole-cell clamping method was applied to the measurement. Test cells were perfused (perfusion speed: approximately 4 mL/min) with an external solution (component of external solution: 137 mmol/L of sodium chloride, 4 mmol/L of potassium chloride, 10 mmol/L of HEPES, 1.8 mmol/L of calcium chloride, 1 mmol/L of magnesium chloride and 10 mmol/L of glucose; adjusted to pH 7.4±0.1 with sodium hydroxide aqueous solution). A glass electrode with a resistance of 2 to 6 MΩ, filled with an internal solution (component: 130 mmol/L of potassium chloride, 1 mmol/L of magnesium chloride, 5 mmol/L of EGTA, 10 mmol/L of HEPES and 5 mmol/L of ATP adjusted to pH 7.2±0.1 with sodium hydroxide aqueous solution) was used. After rupturing cell membrane with glass electrode, the cell membrane voltage was held at −80 mV via a patch clamp software (pCLAMP9 [Axon CNS], Molecular Devices) using patch clamp amplifier (EPC8, HEKA). […] Test cells and the cell-attached cover glass were changed every treatment. Temperature of the fluid in a perfusion fluid tank was 24±2° C.
The obtained current was recorded on a computer via a patch clamp amplifier using patch clamp software. An evaluation item was a tail peak current.
A tail peak current was analyzed using analyzing software (Clampfit 9 [Axon CNS], MolecularDevices). Each 2 pulses of before and after perfusion of test compound for each concentration was analyzed, and a peak values of the tail current on the pulses were determined. The inhibition ratio was determined according to the following equation:

The term IC50 denotes the point on the concentration scale where inhibition reaches its midpoint. Usually inhibition stands for how much of the control response was suppressed. Read a high inhibition as a strong effect.

hERG, sequence (Q12809 whole entry): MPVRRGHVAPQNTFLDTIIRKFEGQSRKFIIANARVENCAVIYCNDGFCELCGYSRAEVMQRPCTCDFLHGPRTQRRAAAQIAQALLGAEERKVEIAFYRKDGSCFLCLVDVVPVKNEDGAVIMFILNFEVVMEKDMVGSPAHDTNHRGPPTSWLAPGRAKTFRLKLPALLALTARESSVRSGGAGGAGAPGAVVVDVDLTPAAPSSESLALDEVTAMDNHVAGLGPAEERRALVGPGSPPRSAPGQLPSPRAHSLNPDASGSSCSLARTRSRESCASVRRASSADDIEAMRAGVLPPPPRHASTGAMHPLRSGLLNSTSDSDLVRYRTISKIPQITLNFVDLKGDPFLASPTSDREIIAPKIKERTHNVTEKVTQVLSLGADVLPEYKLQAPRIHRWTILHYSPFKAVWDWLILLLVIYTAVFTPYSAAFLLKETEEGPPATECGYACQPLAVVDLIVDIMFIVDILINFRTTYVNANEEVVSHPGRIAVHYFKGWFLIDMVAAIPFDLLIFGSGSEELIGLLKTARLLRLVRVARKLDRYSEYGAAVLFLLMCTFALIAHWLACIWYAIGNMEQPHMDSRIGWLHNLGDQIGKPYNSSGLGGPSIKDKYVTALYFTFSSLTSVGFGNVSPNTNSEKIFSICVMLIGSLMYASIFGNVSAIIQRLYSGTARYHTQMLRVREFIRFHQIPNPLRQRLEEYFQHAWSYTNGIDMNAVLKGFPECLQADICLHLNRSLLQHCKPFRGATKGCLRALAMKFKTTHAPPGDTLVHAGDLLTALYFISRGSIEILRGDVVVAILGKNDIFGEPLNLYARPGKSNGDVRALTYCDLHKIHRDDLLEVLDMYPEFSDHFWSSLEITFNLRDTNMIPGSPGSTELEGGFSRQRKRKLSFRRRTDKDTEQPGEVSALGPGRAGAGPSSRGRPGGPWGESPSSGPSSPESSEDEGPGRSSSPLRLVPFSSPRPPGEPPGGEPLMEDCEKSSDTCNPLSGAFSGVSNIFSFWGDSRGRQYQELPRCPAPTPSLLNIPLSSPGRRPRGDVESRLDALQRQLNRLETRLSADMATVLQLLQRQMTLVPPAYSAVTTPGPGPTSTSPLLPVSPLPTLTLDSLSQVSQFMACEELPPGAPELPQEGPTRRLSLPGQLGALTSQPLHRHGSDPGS

For the compound `Cc1cc(NC(=O)c2nn(C)c3ccccc23)cnc1C1=CCC(N(C)C(=O)C(C)(C)C)CC1` (centres unmarked) [Example D217], the half-inhibitory concentration (IC50) in data set [1] was determined as 84.4 nM. Further, the inhibition at 1 µM in data set [2] was 26.7%.
On the same counts, the results for `COc1cc(C(F)(F)F)cnc1-n1ncc(C(=O)Nc2cnc([C@H]3CC[C@H](O)CC3)c(C)c2)c1C` [Example G30] are 147 nM and 3.2%.
On the same counts, the results for `Cc1cc(NC(=O)c2cnn(-c3ccc(C(F)(F)F)cn3)c2C)cnc1C1CCC(=O)CC1` [Example F32] are 146 nM and 17.9%.
On the same counts, the results for `Cc1c(C(=O)Nc2ccc([C@]3(C#N)CC[C@@](C)(O)CC3)nc2)cnn1-c1ccc(C(F)(F)F)cn1` [Example D254] are 146 nM and 6.6%.
With `Cc1c(C(=O)Nc2ccc(C3=CCC(C(C)(C)O)CC3)nc2)cnn1-c1ccc(C(F)(F)F)cn1` (centres unmarked) [Example K32, N-{6-[4-(1-Hydroxyl-methylethyl)cyclohex-1-en-1-yl]pyridin-3-yl}-5-methyl-1-[5-(trifluoromethyl)pyridin-2-yl]-1H-pyrazole-4-carboxamide], the IC50 in data set [1] amounted to 6.32 nM. Further, in data set [2], the inhibition at 1 µM came to 11.3%.
With `Cc1cc(NC(=O)c2cnn(-c3ncc(Cl)cc3F)c2C)cnc1C1=CCC(N2CCOCC2)CC1` (centres unmarked) [Example D19, 1-[5-Chloro-3-fluoropyridin-2-yl]-5-methyl-N-{5-methyl-6-[4-(morpholin-4-yl)cyclohex-1-en-1-yl]pyridin-3-yl}-1H-pyrazole-4-carboxamide], the IC50 in data set [1] was 92 nM. The compound also yielded an inhibition at 1 µM in data set [2] of 35.1%.
On the same counts, the results for `Cc1cc(NC(=O)c2cnn(-c3ncc(C(F)(F)F)cc3Cl)c2C)cnc1C1=CCC(N2CCOCC2)CC1` (centres unmarked) [Example D175] are 49.8 nM and 31.7%.
The like results for `Cc1cc(NC(=O)c2cnn(-c3ccc(C(F)(F)F)cn3)c2C)cnc1C1CCN(C(=O)C(F)(F)F)CC1` [Example K60, 5-Methyl-N-{5-methyl-6-[1-(trifluoroacetyl)piperidin-4-yl]pyridin-3-yl}-1-[5-(trifluoromethyl)pyridin-2-yl]-1H-pyrazole-4-carboxamide] were, in that order, 47.2 nM and 22.8%.
On the same counts, the results for `Cc1cc(NC(=O)c2cnn(-c3ccc(C(F)(F)F)cn3)c2C)cnc1C1=CCC(C(C)(C)O)CC1` (centres unmarked) [Example K31, N-{6-[4-(1-Hydroxy-1-methylethyl)cyclohex-1-en-1-yl]-5-methylpyridin-3-yl}-5-methyl-1-[5-(trifluoromethyl)pyridin-2-yl]-1H-pyrazole-4-carboxamide] are 4.27 nM and 15.8%.
Take `Cc1cc(NC(=O)c2cnn(-c3ccc(C(F)(F)F)cn3)c2C)cnc1C1=CCN(C(=O)N2CCCC2)CC1` [Example K52, 5-Methyl-N-{5-methyl-1-(pyrrolidin-1-ylcarbonyl)-6-[1,2,3,6-tetrahydropyridin-4-yl]pyridin-3-yl}-1-[5-(trifluoromethyl)pyridin-2-yl]-1H-pyrazole-4-carboxamide]: the concentration for half-maximal inhibition (IC50) in data set [1] worked out at 160 nM. The compound also had an inhibition at 1 µM in data set [2] of 31.5%.
On the same counts, the results for `Cc1ccc(-n2ncc(C(=O)Nc3ccc([C@]4(C#N)CC[C@]5(CCCO5)CC4)nc3)c2C)cc1` [Example D279] are 112 nM and 12.8%.
The like results for `Cc1c(C(=O)Nc2ccc(C3CCC(O)CC3)nc2)cnn1-c1ccc(C(F)(F)F)cc1` (centres unmarked) [Example G10] were, in that order, 118 nM and 5.1%.
On to `Cc1cc(NC(=O)c2cnn(-c3ccc(F)cc3)c2C)cnc1C1=CCC(N(C)C(=O)C(C)C)CC1` (centres unmarked) [Example D219, 1-(4-Fluorophenyl)-N-{6-[4-(N-isobutyryl-N-methylamino)cyclohex-1-en-1-yl]-5-methylpyridin-3-yl}-5-methyl-1H-pyrazole-4-carboxamide], for which the half-maximal inhibitory concentration (IC50) in data set [1] is 59.5 nM. The same compound showed an inhibition at 1 µM in data set [2] of 11.4%.
On the same counts, the results for `Cc1c(C(=O)Nc2ccc(C3(C#N)CCC(=O)CC3)nc2)cnn1-c1ccc(Cl)c(Cl)c1` [Example F8] are 61.6 nM and 15.4%.
On the same counts, the results for `Cc1c(C(=O)Nc2ccc([C@]3(C#N)CC[C@@H](O)CC3)nc2)cnn1-c1ccc(F)c(F)c1` [Example G12] are 260 nM and 6.5%.
On the same counts, the results for `Cc1c(C(=O)Nc2ccc([C@]3(C#N)CC[C@@H](N4CCOCC4)CC3)nc2)cnn1-c1ncc(Cl)cc1Cl` [Example D7, N-{6-[r-1-Cyano-c-4-(morpholin-4-yl)cyclohexyl]pyridin-3-yl}-1-(3,5-dichloropyridin-2-yl)-5-methyl-1H-pyrazole-4-carboxamide hydrochloric acid salt] are 208 nM and 24.7%.
In the case of `Cc1c(C(=O)Nc2ccc([C@]3(C#N)CC[C@@H](N4CCOCC4)CC3)nc2)cnn1-c1ccc(F)cc1` [Example D89], in data set [1], the IC50 was determined as 183 nM. For the same compound, testing at 1 µM in data set [2] gave an inhibition of 44.4%.
The like results for `Cc1c(C(=O)Nc2ccc(C3(C#N)CCN(S(=O)(=O)C(C)C)CC3)nc2)cnn1-c1ccc(C(F)(F)F)cn1` [Example K51, N-{6-[4-Cyano-1-(propane-2-sulfonyl)piperidin-4-yl]pyridin-3-yl}-5-methyl-1-[5-(trifluoromethyl)pyridin-2-yl]-1H-pyrazole-4-carboxamide] were, in that order, 37.3 nM and 43.7%.
Turning to `Cc1cc(NC(=O)c2cnn(-c3ccc(C(C)C)cn3)c2C)cnc1C1=CCC(N2CCOCC2)CC1` (centres unmarked) [Example D200], in data set [1], the IC50 worked out at 58.4 nM. For the same compound, in data set [2], testing at 1 µM gave an inhibition of 47.6%.
As to `Cc1c(C(=O)Nc2ccc(C3CCC4(CC3)OCCO4)nc2)cnn1-c1ccc(C(C)(C)C)cc1` [Example D165], the IC50 in data set [1] was 44 nM. The compound also registered an inhibition at 1 µM in data set [2] of 8.9%.
The like results for `CC(=O)N(C)C1CC=C(c2ncc(NC(=O)c3cnn(-c4ccc(C(F)(F)F)cn4)c3C)cc2C)CC1` (centres unmarked) [Example K27, N-{6-[4-(N-Acetyl-N-methylamino)cyclohex-1-en-1-yl]-5-methylpyridin-3-yl}-5-methyl-1-[5-(trifluoromethyl)pyridin-2-yl]-1H-pyrazole-4-carboxamide] were, in that order, 242 nM and 9.7%.
The like results for `CC[C@]1(O)CC[C@](C#N)(c2ccc(NC(=O)c3cnn(-c4ccc(C)cc4)c3C)cn2)CC1` [Example K36, N-[6-(r-1-Cyano-4-ethyl-c-4-hydroxycyclohexan-1-yl)pyridin-3-yl]-5-methyl-1-(4-methylphenyl)-1H-pyrazole-4-carboxamide] were, in that order, 124 nM and 8.1%.
On the same counts, the results for `Cc1c(C(=O)Nc2ccc([C@]3(O)CC[C@@H](N4CCOCC4)CC3)nc2)cnn1-c1ccc(C(F)(F)F)cn1` [Example E2, N-{6-[r-1-Hydroxy-c-4-(morpholin-4-yl)cyclohexyl]pyridin-3-yl}-5-methyl-1-[5-(trifluoromethyl)pyridin-2-yl]-1H-pyrazole-4-carboxamide] are 179 nM and 24.4%.
As to `CC[C@]1(O)CC[C@](C#N)(c2ccc(NC(=O)c3cnn(-c4ccc(F)cc4)c3C)cn2)CC1` [Example K33, N-[6-(r-1-Cyano-4-ethyl-c-4-hydroxycyclohexan-1-yl)pyridin-3-yl]-1-(4-fluorophenyl)-5-methyl-1H-pyrazole-4-carboxamide], the 50% inhibitory concentration (IC50) in data set [1] is 206 nM. Besides, the inhibition at 1 µM in data set [2] turned out to be 8%.
The like results for `CCc1ccc(-n2ncc(C(=O)Nc3ccc([C@]4(C#N)CC[C@@H](O)CC4)nc3)c2C)cc1` [Example J20] were, in that order, 90 nM and 18.1%.
On the same counts, the results for `Cc1cc(NC(=O)c2cnn(-c3ccc(C(F)(F)F)cn3)c2C)cnc1C1=CCC2(CC1)OCCO2` [Example D234] are 55.6 nM and 5.6%.
In the case of `Cc1ccc(-n2ncc(C(=O)Nc3ccc(C4CCC(=O)CC4)nc3)c2C)cc1` [Example E22], the IC50 in data set [1] was 328 nM. The compound further registered an inhibition at 1 µM in data set [2] of 2.7%.
On the same counts, the results for `Cc1c(C(=O)Nc2ccc(C3=CCC(N4CCOCC4)CC3)nc2)cnn1-c1ccc(C(F)(F)F)cn1` (centres unmarked) [Example E1, 5-Methyl-N-{6-[4-(morpholin-4-yl)cyclohex-1-en-1-yl]pyridin-3-yl}-1-[5-(trifluoromethyl)-pyridin-2-yl]-1H-pyrazole-4-carboxamide mesylate] are 62.3 nM and 34.7%.
